Data as given in US10501449B2 (priority 2018, dated 2019).
Read-outs that look alike come from different tables or passages of the source.

Experiments:
hROMK (human Kir1.1) [1] = molecular target: T1, hROMK (human Kir1.1) (Homo sapiens (Human), UniProt P48048); experiment: cell-based; type: cell-based; conditions: whole-cell manual patch clamp, CHO T-Rex hROMK stable cell line, voltage step to -120 mV, Ba2+-subtracted hROMK current; read-out: ROMK EP IC50
Experimental: ROMK Manual Patch Clamp Assay
Cell culture conditions: Cells were maintained in conditions similar to those for Thallium flux assay. hROMK channel expression was induced by adding 0.6 μg/ml of Doxycycline 16-24 hrs prior to the experiments. On the day of experiment, the cells were dissociated using Versene, resuspended in growth media and plated onto coverslips 15 minutes prior to use.
Electrophysiology: The coverslip plated with cells was placed in the experiment chamber perfused with bath solution composed of (in mM): 135 NaCl, 5 KCl, 2 CaCl2, 1 MgCl2, 10 HEPES, 5 Glucose (pH 7.4). Patch pipettes with resistance between 2-5 Megaohms, when filled with a solution containing (in mM): 135 KCl, 1 EGTA, 1 MgCl2, 10 HEPES, 2 Na2ATP (pH 7.3), were used to form gigaseals. The cells were voltage clamped at −75 mV in whole-cell configuration using an Axopatch 200b or Multiclamp 700b (Molecular Devices) amplifier controlled by pClamp Software (Molecular Devices). The current was recorded by applying a voltage step to −120 mV every 10 seconds. […] At the end of the experiment, the cells were perfused with bath solution containing 2 mM Ba^2+ to isolate the contribution of hROMK current.
Data analysis: Raw current values (5 traces each for control, different compound concentration and Ba^2+ treatment groups) were exported from Clampfit into Microsoft Excel where the current remaining after application of Ba^2+ was subtracted from raw current to obtain hROMK specific current.

hERG channels = hERG channels (Homo sapiens (Human), UniProt Q12809); experiment: hERG Manual Patch Clamp Assay; type: cell-based; conditions: HEK 293 cells stably expressing hERG channels; for inhibition at 1 µM: human, pH 7.4, 1 uM, read-out: hERG EP % Inh @ 1 uM
hROMK (human Kir1.1) [2] = molecular target: T1, hROMK (human Kir1.1); experiment: cell-based; conditions: CHO T-Rex hROMK stable cell line; thallium flux; 10-point concentration response curve; read-out: Human ROMK Th Flux IC50

T1 sequence (P48048 whole entry): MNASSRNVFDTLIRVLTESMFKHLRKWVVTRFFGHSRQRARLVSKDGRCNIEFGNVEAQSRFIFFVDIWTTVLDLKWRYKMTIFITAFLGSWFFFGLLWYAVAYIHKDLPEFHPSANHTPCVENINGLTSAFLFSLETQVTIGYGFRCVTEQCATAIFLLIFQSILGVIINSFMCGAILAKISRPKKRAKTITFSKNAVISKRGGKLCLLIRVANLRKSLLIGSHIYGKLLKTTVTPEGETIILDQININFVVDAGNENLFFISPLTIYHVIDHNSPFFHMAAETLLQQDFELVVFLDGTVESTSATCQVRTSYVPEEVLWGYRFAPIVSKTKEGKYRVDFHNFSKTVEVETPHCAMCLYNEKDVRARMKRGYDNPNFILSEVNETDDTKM
hERG channels, sequence (Q12809 whole entry): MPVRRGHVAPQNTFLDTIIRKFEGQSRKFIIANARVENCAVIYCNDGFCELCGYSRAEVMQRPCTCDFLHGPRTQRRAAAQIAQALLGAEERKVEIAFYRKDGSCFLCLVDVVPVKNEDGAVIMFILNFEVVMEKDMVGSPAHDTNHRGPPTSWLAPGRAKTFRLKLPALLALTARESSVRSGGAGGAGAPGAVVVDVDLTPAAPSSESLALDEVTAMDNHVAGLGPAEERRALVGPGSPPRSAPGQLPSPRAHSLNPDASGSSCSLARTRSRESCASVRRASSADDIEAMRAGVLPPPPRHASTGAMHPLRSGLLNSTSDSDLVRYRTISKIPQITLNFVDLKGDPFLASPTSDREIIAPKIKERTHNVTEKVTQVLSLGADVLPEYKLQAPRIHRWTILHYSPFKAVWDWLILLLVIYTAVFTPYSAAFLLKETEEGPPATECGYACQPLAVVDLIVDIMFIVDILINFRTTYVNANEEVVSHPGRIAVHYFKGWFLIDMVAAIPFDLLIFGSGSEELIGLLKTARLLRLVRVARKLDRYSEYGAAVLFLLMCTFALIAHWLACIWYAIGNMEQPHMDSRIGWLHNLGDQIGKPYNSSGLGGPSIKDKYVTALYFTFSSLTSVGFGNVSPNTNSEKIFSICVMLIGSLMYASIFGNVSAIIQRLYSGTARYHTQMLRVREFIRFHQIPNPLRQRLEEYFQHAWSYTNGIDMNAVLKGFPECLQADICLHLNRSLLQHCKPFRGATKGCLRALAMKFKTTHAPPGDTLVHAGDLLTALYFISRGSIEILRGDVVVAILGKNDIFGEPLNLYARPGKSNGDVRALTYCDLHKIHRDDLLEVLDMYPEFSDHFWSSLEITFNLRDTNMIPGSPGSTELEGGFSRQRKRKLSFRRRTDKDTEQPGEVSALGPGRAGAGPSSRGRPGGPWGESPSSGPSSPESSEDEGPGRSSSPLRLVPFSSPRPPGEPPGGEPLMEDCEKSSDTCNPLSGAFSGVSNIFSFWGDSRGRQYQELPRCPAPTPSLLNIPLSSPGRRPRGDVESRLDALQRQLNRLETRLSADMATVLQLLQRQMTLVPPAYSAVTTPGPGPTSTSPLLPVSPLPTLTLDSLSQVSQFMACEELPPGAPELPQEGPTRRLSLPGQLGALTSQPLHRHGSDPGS

SMILES	IC50 (hROMK (human Kir1.1) [1])	inhibition at 1 µM (hERG channels)	IC50 (hROMK (human Kir1.1) [2])	hERG EP % Inh @ 1 uM (hERG channels; 1 uM)
Cc1c([C@@H]2CN(Cc3cnn(-c4ccc5oc(=O)n(C)c5c4)n3)C[C@H](CO)N2)ccc2c1COC2=O [Example 109-I, 5-(4-(((3R,5R)-3-(hydroxymethyl)-5-(4-methyl-1-oxo-1,3-dihydroisobenzofur-an-5-yl)piperazin-1-yl)methyl)-2H-1,2,3-triazol-2-yl)-3-methylbenzo[d]oxa-zol-2(3H)-one]	0.054 µM	3.6%	–	–
Cc1cn(-c2ncc(CN3CCN[C@H](c4ccc5c(c4C)COC5=O)C3)cn2)c(C)n1 [Example 139-I, (R)-5-(4-((2-(2,4-dimethyl-1H-imidazol-1-yl)pyrimidin-5-yl)methyl)piperazin-2-yl)-4-methylisobenzofuran-1(3H)-one]	0.03 µM	6.6%	0.036 µM	–
Cc1c([C@@H]2CN(Cc3ccc(-c4ccc5oc(=O)n(C)c5c4)nc3)CCO2)ccc2c1COC2=O [Example 3-I, (R)-3-methyl-5-(5-((2-(4-methyl-1-oxo-1,3-dihydroisobenzofuran-5-yl)morpholino)methyl)pyridin-2-yl)benzo[d]oxazol-2(3H)-one]	0.044 µM	26%	0.21 µM	–
COc1cc(-n2cc(CN3CCN[C@H](c4ccc5c(c4C)COC5=O)C3)cn2)ncc1C#N [Example 59-I, (R)-4-methoxy-6-(4-((3-(4-methyl-1-oxo-1,3-dihydroisobenzofuran-5-yl)piperazin-1-yl)methyl)-1H-pyrazol-1-yl) nicotinonitrile]	0.0048 µM	15%	0.02 µM	–
Cc1nn(-c2ncc(CN3CCN[C@H](c4ccc5c(c4C)COC5=O)C3)cn2)cc1C#N [Example 221-I, (R)-3-methyl-1-(5-((3-(4-methyl-1-oxo-1,3-dihydroisobenzofuran-5-yl)piperazin-1-yl)methyl)pyrimidin-2-yl)-1H-pyraozle-4-carbonitrile]	0.013 µM	5.4%	0.022 µM	–
Cc1nc(-n2ncc(CN3C[C@@H](c4ccc5c(c4C)COC5=O)N[C@@H](C)C3)n2)nc(C)c1C#N [Example 151-I, 4,6-dimethyl-2-(4-(((3S,5R)-3-methyl-5-(4-methyl-1-oxo-1,3-dihydroisobenzofuran-5-yl)piperazin-1-yl)methyl)-2H-1,2,3-triazol-2-yl)pyrimidine-5-carbonitrile]	0.064 µM	5.1%	0.043 µM	–
Cc1c([C@@H]2CN(Cc3cn(-c4ccc5oc(=O)n(C)c5c4)nn3)CCN2)ccc2c1COC2=O [Example 61-I, (R)-3-methyl-5-(4-((3-(4-methyl-1-oxo-1,3-dihydroisobenzofuran-5-yl)piperazin-1-yl)methyl)-1H-1,2,3-triazol-1-yl)benzo[d]oxazol-2 (3H)-one]	0.04 µM	–	–	–
Cc1cc(-n2cc(CN3C[C@@H](c4ccc5c(c4C)COC5=O)N[C@@H](C)C3)nn2)ncc1C#N [Example 106-I, 4-methyl-6-(4-(((3S,5R)-3-methyl-5-(4-methyl-1-oxo-1,3-dihydroisobenzofur-an-5-yl)piperazin-1-yl)methyl)-1H-1,2,3-triazol-1-yl)nicotinonitrile]	0.01 µM	0.98%	–	–
Cc1cc(-n2cc(CN3CC(c4ccc5c(c4C)COC5=O)NCC3C)cn2)ncc1C#N (single isomer, unassigned) [Example 244-II, 4-methyl-6-(4-((2-methyl-5-(4-methyl-1-oxo-1,3-dihydroisobenzofuran-5-yl)piperazin-1-yl)methyl)-1H-pyrazol-1-yl)nicotinonitrile]	0.022 µM	–	0.017 µM	–
COc1cc(-n2cnc(CN3C[C@@H](c4ccc5c(c4C)COC5=O)N[C@@H](C)C3)c2)ncc1C#N [Example 97-I, 4-methoxy-6-(4-(((3S,5R)-3-methyl-5-(4-methyl-1-oxo-1,3-dihydroisobenzofur-an-5-yl)piperazin-1-yl)methyl)-1H-imidazol-1-yl)nicotinonitrile]	0.043 µM	–	0.028 µM	–
Cc1cc(-c2cc(CN3C[C@@H](c4ccc5c(c4C)COC5=O)N[C@@H](C)C3)on2)ncc1C#N [Example 214-I, 4-methyl-6-(5-(((3S,5R)-3-methyl-5-(4-methyl-1-oxo-1,3-dihydroisobenzofuran-5-yl)piperazin-1-yl)methyl)isoxazol-3-yl)nicotinonitrile]	–	22%	0.0066 µM	–
COc1cc(-n2cc(CCN3C[C@@H](c4ccc5c(c4C)COC5=O)N[C@@H](C)C3)cn2)ncc1C#N [Example 192-I, 4-methoxy-6-(4-(2-((3S,5R)-3-methyl-5-(4-methyl-1-oxo-1,3-dihydroisobenzofuran-5-yl)piperazin-1-yl)ethyl)-1H-pyrazol-1-yl)nicotinonitrile]	–	46%	0.016 µM	–
Cc1cc(-n2cc(CN3C[C@@H](c4ccc5c(c4C)COC5=O)N[C@@H](C)C3)n(C)c2=O)ccn1 [Example 266-I, 3-methyl-4-(((3S,5R)-3-methyl-5-(4-methyl-1-oxo-1,3-dihydroisobenzofuran-5-yl)piperazin-1-yl)methyl)-1-(2-methylpyridin-4-yl)-1,3-dihydro-2H-imidazol-2-one]	–	3.1%	0.036 µM	–
Cc1c([C@@H]2CN(Cc3cnn(-c4cc(N5CCOCC5)c(C#N)cn4)c3)CCN2)ccc2c1COC2=O [Example 220-I, (R)-6-(4-((3-(4-methyl-1-oxo-1,3-dihydroisobenzofuran-5-yl)piperazin-1-yl)methyl)-1H-pyrazol-1-yl)-4-morpholinonicotinonitrile]	–	30%	0.029 µM	–
Cc1c([C@@H]2CN(Cc3ccc(-n4cc(C#N)c(OC(F)F)n4)nc3)CCN2)ccc2c1COC2=O [Example 219-I, (R)-3-(difluoromethoxy)-1-(5-((3-(4-methyl-1-oxo-1,3-dihydroisobenzofuran-5-yl)piperazin-1-yl)methyl)pyridin-2-yl)-1H-pyrazole-4-carbonitrile]	–	75%	0.021 µM	–
COc1cc(-n2nnc(CN3CC[C@@H](O)[C@H](c4ccc5c(c4C)COC5=O)C3)n2)ccc1C#N [Example 272-I, 4-(5-(((3R,4R)-4-hydroxy-3-(4-methyl-1-oxo-1,3-dihydroisobenzofuran-5-yl)piperidin-1-yl)methyl)-2H-tetrazol-2-yl)-2-methoxybenzonitrile]	–	5.2%	0.065 µM	–
Cc1cn(-c2ccc(CN3CCN[C@H](c4ccc5c(c4C)COC5=O)C3)cn2)nc1C#N [Example 242-I, (R)-4-methyl-1-(5-((3-(4-methyl-1-oxo-1,3-dihydroisobenzofuran-5-yl)piperazin-1-yl)methyl)pyridin-2-yl)-1H-pyrazole-3-carbonitrile]	–	36%	0.01 µM	–
Cc1cc(-n2cc(CN3CCN[C@H](c4ccc5c(c4)COC5=O)C3)cn2)ncc1C#N [Example 239-I, (R)-4-methyl-6-(4-((3-(1-oxo-1,3-dihydroisobenzofuran-5-yl)piperazin-1-yl)methyl)-1H-pyrazol-1-yl)nicotinonitrile]	–	18%	0.063 µM	–
COc1cc(N2CCC(CN3CCN[C@H](c4ccc5c(c4C)COC5=O)C3)C2)ncc1C#N (single isomer, unassigned) [Example 155-I]	–	–	0.011 µM	26%
Cc1cn(-c2cc(C)c(CN3CCN[C@H](c4ccc5c(c4C)COC5=O)C3)cn2)cn1 [Example 141-I, (R)-4-methyl-5-(4-((4-methyl-6-(4-methyl-1H-imidazol-1-yl)pyridin-3-yl)methyl)piperazin-2-yl)isobenzofuran-1(3H)-one]	–	7.1%	0.069 µM	–
Cc1c([C@@H]2CN(Cc3cnc(-n4cnc(C#N)c4)nc3)CCN2)ccc2c1COC2=O [Example 215-I]	–	29%	0.011 µM	–
Cc1cn(-c2ccc(CN3CCN[C@H](c4ccc5c(c4C)COC5=O)C3)c(C)n2)cn1 [Example 142-I, (R)-4-methyl-5-(4-((2-methyl-6-(4-methyl-1H-imidazol-1-yl)pyridin-3-yl)methyl)piperazin-2-yl)isobenzofuran-1(3H)-one]	–	8.5%	0.076 µM	–
Cc1cc(-c2ncc(CN3CC[C@@H](O)[C@H](c4ccc5c(c4C)COC5=O)C3)s2)ncc1C#N [Example 125-I, 6-(5-(((3R,4R)-4-hydroxy-3-(4-methyl-1-oxo-1,3-dihydroisobenzofuran-5-yl)piperidin-1-yl)methyl)thiazol-2-yl)-4-methylnicotinonitrile]	–	8.3%	0.03 µM	–
Cc1c([C@@H]2CN(Cc3cnc(-n4cnc(C#N)c4)s3)CCN2)ccc2c1COC2=O [Example 21-I, (R)-1-(5-((3-(4-methyl-1-oxo-1,3-dihydroisobenzofuran-5-yl)piperazin-1-yl)methyl)thiazol-2-yl)-1H-imidazole-4-carbonitrile]	–	8.5%	0.093 µM	–
Cc1cc(C#N)ccc1-n1cc(CN2CCO[C@H](c3ccc4c(c3C)COC4=O)C2)cn1 [Example 47-I, (R)-3-methyl-4-(4-((2-(4-methyl-1-oxo-1,3-dihydroisobenzofuran-5-yl)morpholino)methyl)-1H-pyrazol-1-yl) benzonitrile]	–	49%	0.049 µM	–
Cc1cc(-n2cc(CN3CC(c4ccc5c(c4C)COC5=O)NCC3CO)cn2)ncc1C#N (single isomer, unassigned) [Example 123-I, 6-(4-((2-(hydroxymethyl)-5-(4-methyl-1-oxo-1,3-dihydroisobenzofuran-5-yl)piperazin-1-yl)methyl)-1H-pyrazol-1-yl)-4-methylnicotinonitrile]	–	7.2%	0.074 µM	–
